According to patent publication US9394233B2, “ROS-activated compounds as selective anti-cancer therapeutics” (University of Cincinnati, priority 2012, dated 2016):

Tests used:
renal cancer cells = assay: Sulforhodamine B total protein content assay, renal cancer cell lines (NCI); assay type: cell-based; settings: Homo sapiens; median over seven renal cancer cell lines
Protocol: (§1) The sensitivity of renal cancer cells to treatment with compound 25 was investigated. Compound 25 was evaluated for effects on viability using a sulforhodamine B total protein content assay at the NCI Developmental Therapeutics Program. The method uses total protein content and was developed by Monks et al., Feasibility of a high-flux anticancer drug screen using a diverse panel of cultured human tumor cell lines, J. Natl. Cancer Inst. 83:757-66 (1991). Briefly, cells are treated with compound 25 and then fixed to the plate surface. The number of cells is proportional to the relative amount of protein as measured by sulforhodamine B. Seven renal cancer cell lines were examined: 786-0, A498, ACHN, CAKI-1, RXF 393, SN12C, and UO-31. Data at the NCI was then fit to sigmoid and the IC50 and fitting error determined

HeLa cells = assay: HeLa cell viability, MTT assay; assay type: cell-based; settings: Homo sapiens, 50% reduction in percent of viable HeLa cells, read-out: IC50 against HeLa Cells
Protocol: Table 1 sets forth ROS-Activated compounds of the present invention, together with their IC50 values corresponding to a 50% reduction in the percent of viable HeLa cells in vitro as measured via MTT assay.
All synthesized compounds were purified to greater than 98% purity prior to cell testing. HeLa cell viability assays were performed using an MTT assay.
The general structure of the ROS-activated compounds disclosed herein was probed to determine how positions in the structure alter potency in aqueous media. Compounds were screened against HeLa cells to determine IC50 values. Cell viability was monitored by an MTT dye that forms a purple formazan product in viable cells that are undergoing metabolism. […] Errors reported are between two separate experiments; independent curve-fitting had r greater than 0.95).

RPMI-8226 = assay: NCI-60 Sulforhodamine B growth inhibition, RPMI-8226; assay type: cell-based; settings: Homo sapiens; RPMI-8226, plasmacytoma and myeloma cell line
Protocol: (§2) Compounds 25 and 9 were evaluated for effects on the viability of the cell lines in the NCI-60 cell panel. […] Data is reported as growth inhibition GI50, rather than IC50, to reflect the change in cell counts relative to the starting number of cells.
(§3) Growth inhibition pattern induced by 25 and 9 based on the type of cancer was also analyzed. […] The majority of leukemia and renal cancer cell lines were above the median, indicating enhanced sensitivity to ROS-activating compounds. The current results further substantiate renal carcinoma as a potential target.

SN12C = assay: Sulforhodamine B total protein content assay, SN12C; assay type: cell-based; settings: Homo sapiens; SN12C renal cancer cells
Protocol: as §1

NCI-60 cell panel = assay: NCI-60 cell panel, Sulforhodamine B growth inhibition; assay type: cell-based
Protocol: as §2

CAKI-1 = assay: Sulforhodamine B total protein content assay, CAKI-1; assay type: cell-based; settings: Homo sapiens; CAKI-1 renal cancer cells
Protocol: as §1

MOLT-4 = assay: NCI-60 Sulforhodamine B growth inhibition, MOLT-4; assay type: cell-based; settings: Homo sapiens; MOLT-4, ALL model line
Protocol: as §2, §3

MA9.3 AML cells = assay: AML cytotoxicity, MTT assay on MA9.3 AML cell line; assay type: cell-based, human; settings: Homo sapiens, read-out: IC50 against MA9.3 AML cells
Source text: (§4) To assess the anti-cancer activity against AML, transformed cells were compared to closely related, non-transformed counterparts. In the case of AML, the generally accepted non-transformed cell of origin is the human CD34+ blood stem/progenitor cell. Assessing potency against normal blood stem cells is important since, without selective cytotoxicity, an agent will yield reduced efficacy and therapeutic potential. […] Therefore, a comparison of current agents and the ROS-activated compounds disclosed herein was carried out. (FIG. 3). Cytotoxicity was measured via MTT assay on CD34+ blood stem/progenitor cells (grey lines) and on the MA9.3 AML cell line (black lines), which was derived from the transformation of human CD34+ cells by introduction of the leukemia oncogene MLL-AF9.

[1] = tested on: human CD34+ blood stem/progenitor cells; assay: Cytotoxicity, MTT assay on CD34+ blood stem/progenitor cells; assay type: cell-based; settings: Homo sapiens, normal blood stem cells, read-out: IC50 against CD34+ blood stem/progenitor cells
Source text: as §4

ACHN = assay: Sulforhodamine B total protein content assay, ACHN; assay type: cell-based; settings: Homo sapiens; ACHN renal cancer cells
Protocol: as §1

SR-91 = assay: NCI-60 Sulforhodamine B growth inhibition, SR-91; assay type: cell-based; settings: SR-91, acute lymphoblastic leukemia model
Protocol: as §2, §3

IC50 (HeLa cells): 11 µM | IC50 (SN12C): 21 ± 1.2 µM | IC50 (CAKI-1): 0.37 ± 0.04 µM | IC50 (ACHN): 0.36 ± 0.09 µM
Compound: Oc1ccc(OCCN(CCOc2ccc(O)cc2)c2ccccc2)cc1 [Compound 25, 4,4′-(2,2′-(phenylazanediyl)bis(ethane-2,1-diyl)bis(oxy))diphenol]
IC50 (renal cancer cells): 1.8 µM | GI50 (RPMI-8226): 3.8 µM | range of GI50 values (NCI-60 cell panel; distribution of GI50 over NCI-60 panel): 55 fold | GI50 (NCI-60 cell panel; median over NCI-60 panel, Sulforhodamine B): 3.9 µM | GI50 (MOLT-4): 1.3 µM | IC50 (MA9.3 AML cells): 3 ± 0.2 µM | IC50 [1]: 16 ± 1 µM | GI50 (SR-91): 0.47 µM
